Read-outs that look alike come from different tables or passages of the source.
Tests used:
Format in all cases: cell-based
RPMI 8226 cells = assay: XTT cytotoxicity, RPMI 8226; conditions: RPMI 8226, multiple myeloma, non-resistant, read-out: IC50
Procedure: (§1) The cytotoxic activity of the novel family was evaluated against various tumor cells, including myeloma cells, acute lymphoblastic leukemia cells, acute monocytic leukemia cells, chronic myelogenous leukemia cells, pancreatic cancer cells, breast cancer cells, uterine sarcoma cells, cervix adenocarcinoma cells, ovary cancer cells, melanoma cells, osteosarcoma cells, prostate cancer cells, lung cancer cells, neuroblastoma cells and colorectal adenocarcinoma cells by XTT assay.

RPMI-DOX40 cells = assay: XTT cytotoxicity, RPMI-DOX40; conditions: for IC50: RPMI-DOX40, multiple myeloma, P-gp overexpression, read-out: IC50; for IC50 ratio between resistant and non-resistant cells: RPMI-DOX40 / RPMI 8226
Procedure: as §1

RPMI-LR5 cells = assay: XTT cytotoxicity, RPMI-LR5; conditions: for IC50: RPMI-LR5, multiple myeloma, melphalan resistant, read-out: IC50; for IC50 ratio between resistant and non-resistant cells: RPMI-LR5 / RPMI 8226
Procedure: as §1

RPMI-MR20 cells = assay: XTT cytotoxicity, RPMI-MR20; conditions: for IC50: RPMI-MR20, mitoxantrone resistant, read-out: IC50; for IC50 ratio between resistant and non-resistant cells: RPMI-MR20 / RPMI 8226
Procedure: as §1

MM1.S cells = assay: XTT cytotoxicity, MM1.S; conditions: multiple myeloma, non-resistant, read-out: IC50
Procedure: as §1

MM1.R cells = assay: XTT cytotoxicity, MM1.R; conditions: for IC50 ratio between resistant and non-resistant cells: MM1.R / MM1.S; for IC50: MM1.R, multiple myeloma, dexamethasone resistant, read-out: IC50
Procedure: as §1

NALM6 cells = assay: XTT cytotoxicity, NALM6; conditions: NALM6, acute lymphoblastic leukemia, non-resistant, read-out: IC50
Procedure: as §1
(§2) Most tubulin-binding anticancer drugs currently used in the clinic are substrates for Pgp effux pump. […] The inventors tested the viability of NALM6 acute lymphoblastic leukemia cell line (ALL) and its corresponding doxorubicin resistant N6/ADR cell line that overexpress Pgp glycoprotein and has cross-resistance to vincristine.

N6/ADR cells = assay: XTT cytotoxicity, N6/ADR; conditions: for IC50 ratio between resistant and non-resistant cells: N6/ADR / NALM6; for IC50: N6/ADR, acute lymphoblastic leukemia, P-gp overexpression, read-out: IC50
Procedure: as §1, §2

MCF7 cells = assay: XTT cytotoxicity, MCF7; conditions: MCF7, breast adenocarcinoma, non-resistant
Procedure: as §1

MCF7-VP cells = assay: XTT cytotoxicity, MCF7-VP; conditions: for IC50: MCF7-VP, breast adenocarcinoma, MRP overexpression; for IC50 ratio between resistant and non-resistant cells: MCF7-VP / MCF7
Procedure: as §1

MES-SA cells = assay: XTT cytotoxicity, MES-SA; conditions: poorly differentiated uterine sarcoma, non-resistant
Procedure: as §1

MES-SA/DX5 cells = assay: XTT cytotoxicity, MES-SA/DX5; conditions: for IC50: MES-SA/DX5, uterine sarcoma, P-gp overexpression; for IC50 ratio between resistant and non-resistant cells: MES-SA/DX5 / MES-SA; for effectiveness in subline overexpressing PgP: MES-SA/DX5 vs MES-SA
Procedure: as §1

NCI-H69 cells = assay: XTT cytotoxicity, NCI-H69; conditions: NCI-H69, small cell lung carcinoma, non-resistant
Procedure: as §1

NCI-H69 VCR/R cells = assay: XTT cytotoxicity, NCI-H69 VCR/R; conditions: for IC50: NCI-H69 VCR/R, vincristine resistant; for IC50 ratio between resistant and non-resistant cells: NCI-H69 VCR/R / NCI-H69
Procedure: as §1

A2780 cells = assay: XTT cytotoxicity, A2780; conditions: A2780, ovarian carcinoma, non-resistant
Procedure: as §1

A2780ADR cells = assay: XTT cytotoxicity, A2780ADR; conditions: for IC50 ratio between resistant and non-resistant cells: A2780ADR / A2780; for IC50: A2780ADR, ovarian carcinoma, resistant
Procedure: as §1

[1] = system: colchicine binding site on tubulin protein; assay: EBI competition assay, RPMI-8226 cells; conditions: RPMI-8226 living cells
RPMI8226 cells = assay: Cell cycle distribution by flow cytometry; conditions: 6 hours; IC50, IC50x2.5 and IC50x5 concentrations
Procedure: Cell cycle arrest is a shared consequence of MTAs treatment. The effects of cell cycle distribution were determined in RPMI8226 cells treated for 6 and 18 hours with a range of concentrations of the molecules. The cells were stained with propidium iodide and cell cycle distribution was measured using a cytoFLEX flow cytometer.

Row | Compound | IC50 (RPMI 8226 cells; Homo sapiens) | IC50 (RPMI-DOX40 cells) | IC50 ratio between resistant and non-resistant cells (RPMI-DOX40 cells) | IC50 (RPMI-LR5 cells) | IC50 ratio between resistant and non-resistant cells (RPMI-LR5 cells) | IC50 (RPMI-MR20 cells) | IC50 ratio between resistant and non-resistant cells (RPMI-MR20 cells) | IC50 (NALM6 cells; Homo sapiens, NALM-6) | IC50 ratio between resistant and non-resistant cells (N6/ADR cells) | IC50 (N6/ADR cells) | IC50 (MCF7 cells; Homo sapiens) | IC50 (MCF7-VP cells; Homo sapiens) | IC50 ratio between resistant and non-resistant cells (MCF7-VP cells) | IC50 (MES-SA cells; Homo sapiens) | IC50 (MES-SA/DX5 cells; Homo sapiens) | IC50 ratio between resistant and non-resistant cells (MES-SA/DX5 cells) | effectiveness in subline overexpressing PgP (MES-SA/DX5 cells) | IC50 ratio between resistant and non-resistant cells (NCI-H69 VCR/R cells) | IC50 ratio between resistant and non-resistant cells (A2780ADR cells) | prevention of covalent binding of EBI to the colchicine binding site [1] | further results
1 | CCCCCOC(=O)c1[nH]c2c(c1C)C(=O)CC(c1nccs1)C2 (stereo not shown) [SMS213, pentyl-3-methyl-4-oxo-6-(thiazol-2-yl)-4,5,6,7-tetrahydro-1H-indole-2-carboxylate] | 0.092 µM | 0.068 µM | 0.739 | 0.06 µM | 0.652 | 0.079 µM | 0.859 | 0.107 µM | 1.019 | 0.109 µM | 0.243 µM | 0.513 µM | 2.114 | 0.12 µM | 0.139 µM | 1.158 | – | – | – | – | IC50 (MM1.S cells; Homo sapiens): 0.124 µM; IC50 ratio between resistant and non-resistant cells (MM1.R cells): 1.185; IC50 (MM1.R cells; MM.1R): 0.147 µM
2 | CCC1=C[C@@H]2CN(C1)Cc1c([nH]c3ccccc13)[C@@](C(=O)OC)(c1cc3c(cc1OC)N(C)[C@H]1[C@@](O)(C(=O)OC)[C@H](OC(C)=O)[C@]4(CC)C=CCN5CC[C@]31[C@@H]54)C2 [Vinorelbine] | – | – | – | – | – | – | – | – | – | – | 0.022 µM | 0.028 µM | 1.273 | 0.064 µM | > 1 µM | >15.625 | less effective in the subline overexpressing PgP | >45.454 | 300.000 | – | IC50 (NCI-H69 cells; Homo sapiens): 0.022 µM; IC50 (NCI-H69 VCR/R cells; Homo sapiens): > 1 µM; IC50 (A2780 cells; Homo sapiens): 0.009 µM; IC50 (A2780ADR cells; A2780 ADR): 2.7 µM
3 | Cc1c(C(=O)OCCCCN)[nH]c2c1C(=O)CC(c1ncco1)C2.Cl.Cl (stereo not shown) [SMS088, 4-ami0butyl-3-methyl-6-(oxazol-2-yl)-4-oxo-4,5,6,7-tetrahydro-1H-indole-2-carboxylate dihydrogen chloride] | – | 1.35 µM | 0.839 | 1.43 µM | 0.885 | > 1.8 µM | >1.116 | – | 1.107 | 0.062 µM | – | – | 1.251 | – | – | 2.391 | – | – | – | prevented the covalent binding of EBI to the colchicine binding site | IC50 (RPMI 8226 cells): 1.61 µM; IC50 (MM1.S cells): 1.1 µM; IC50 ratio between resistant and non-resistant cells (MM1.R cells): 0.934; IC50 (MM1.R cells): 1.02 µM; IC50 (NALM6 cells): 0.056 µM; IC50 (MCF7 cells): 5.84 µM; IC50 (MCF7-VP cells): 7.3 µM; IC50 (MES-SA cells): 2.2 µM; IC50 (MES-SA/DX5 cells): 5.26 µM; cell cycle arrest (RPMI8226 cells): cell cycle arrest in G2M phase
4 | CCCCCOC(=O)c1[nH]c2c(c1C)C(=O)CN(c1ccccc1)C2 [SMS078, Pentyl 3-methyl-4-oxo-6-phenyl-4,5,6,7-tetrahydro-1H-pyrrolo[2,3-c]pyridine-2-carboxylate] | 0.21 µM | 0.489 µM | 2.329 | – | – | – | – | 0.178 µM | 0.927 | 0.165 µM | – | – | – | – | – | – | – | – | – | – | –
5 | CC(=O)O[C@H]1C(=O)[C@@]2(C)[C@H]([C@H](OC(=O)c3ccccc3)[C@]3(O)C[C@H](OC(=O)[C@H](O)[C@@H](NC(=O)c4ccccc4)c4ccccc4)C(C)=C1C3(C)C)[C@]1(OC(C)=O)CO[C@@H]1C[C@@H]2O [Paqlitaxel, paclitaxel] | – | – | – | – | – | – | – | 0.0084 µM | 2.857 | 0.024 µM | 0.136 µM | 0.074 µM | 0.544 | 0.11 µM | > 1 µM | >9.009 | less effective in the subline overexpressing PgP | >16.949 | 61.538 | – | sensitivity to Pgp glycoprotein overexpression (N6/ADR cells; N6/ADR vs NALM6 dose response): sensitive to PgP; IC50 (NCI-H69 cells; Homo sapiens): 0.059 µM; IC50 (NCI-H69 VCR/R cells; Homo sapiens): > 1 µM; IC50 (A2780 cells; Homo sapiens): 0.0065 µM; IC50 (A2780ADR cells; A2780 ADR): 0.4 µM
6 | Epothilone | – | – | – | – | – | – | – | – | – | – | – | – | 2.073 | – | – | 3.613 | – | >11.364 | >370.370 | – | IC50 (MCF7 cells): 0.22 µM; IC50 (MCF7-VP cells): 0.456 µM; IC50 (MES-SA cells): 0.052 µM; IC50 (MES-SA/DX5 cells): 0.187 µM; IC50 (NCI-H69 cells): 0.088 µM; IC50 (NCI-H69 VCR/R cells): > 1 µM; IC50 (A2780 cells): 0.0027 µM; IC50 (A2780ADR cells): > 1 µM
7 | CCCCCOC(=O)c1[nH]c2c(c1C)C(=O)CC(c1ccco1)C2 (stereo not shown) [SMS001, reference compound] | 0.04 µM | 0.034 µM | 0.850 | 0.029 µM | 0.725 | 0.035 µM | 0.875 | 0.037 µM | 1.000 | 0.037 µM | 0.35 µM | 0.469 µM | 1.340 | 0.203 µM | 0.049 µM | 0.241 | – | – | – | prevented the covalent binding of EBI to the colchicine binding site | IC50 (MM1.S cells; Homo sapiens): 0.063 µM; IC50 (MM1.R cells; MM.1R): 0.069 µM
8 | COc1cc2c(c(OC)c1OC)-c1ccc(OC)c(=O)cc1[C@@H](NC(C)=O)CC2 [Colchicine] | – | – | – | – | – | – | – | – | – | – | – | – | – | – | – | – | less effective in the subline overexpressing PgP | – | – | – | –
9 | CCCOC(=O)c1[nH]c2c(c1C)C(=O)CN(c1ncco1)C2 [SMS294, Propyl 3-methyl-6-(oxazol-2-yl)-4-oxo-4,5,6,7-tetrahydro-1H-pyrrolo[2,3-c]pyridine-2-carboxylate] | 0.666 µM | 1.06 µM | 1.598 | – | – | – | – | 0.907 µM | 2.138 | 1.94 µM | – | – | – | – | – | – | – | – | – | – | –
10 | CCCOC(=O)c1[nH]c2c(c1C)C(O)CC(c1ncco1)C2 (stereo not shown) [SMS291, propyl-4-hydroxy-3-methyl-6-(oxazol-2-yl)-4,5,6,7-tetrahydro-1H-indole-2-carboxylate] | 0.978 µM | 0.531 µM | 0.543 | – | – | – | – | 0.51 µM | 0.686 | 0.35 µM | – | – | – | – | – | – | – | – | – | did not prevent the covalent binding of EBI to the colchicine binding site | –

Reference: patent US20260226037A1, “MICROTUBULE TARGETING AGENTS” (ARIEL SCIENTIFIC INNOVATIONS LTD., priority 2022, published 2026)
